Legend:
[1] = Metabolic stability in mouse liver microsomes assessed as compound turnover after 30 mins; type: ADME, Microsome; settings: read-out: Drug metabolism
in vitro = settings: human, liver microsomes
in vivo = settings: rat, iv, 0.5 mg/kg

Row | SMILES | metabolised at 0.5 h [1] [%] | metabolised at 0.5 h (in vitro) [%] | clearance (in vivo) [mL/min/kg]
1 | Cc1ccc(S(=O)(=O)Nc2cccc(Oc3nc(C)cc(C)c3C#N)c2)cc1 | 100 | 72 | 
2 | N#Cc1c(C(F)(F)F)cc(C2CC2)nc1Oc1cccc(NS(=O)(=O)c2ccc(Cl)cc2)c1 |  | 13 | 3.17

Reference: ChEMBL document CHEMBL2390944, “Discovery and optimization of arylsulfonyl 3-(pyridin-2-yloxy)anilines as novel GPR119 agonists” (Bioorg Med Chem Lett, 2013)
